Reference: ChEMBL document CHEMBL2331082, “Cinnamic acid derivatives as inhibitors for chorismatases and isochorismatases” (Bioorg Med Chem Lett, 2013)

Legend:
Chorismatase [1] = target: T1, Chorismatase (Streptomyces hygroscopicus subsp. ascomyceticus, UniProt Q9KID9); assay: Inhibition of Streptomyces hygroscopicus subsp. ascomyceticus chorismatase FkbO expressed in Escherichia coli BL21(DE3) using chorismate as substrate after 5 mins by LDH-coupled spectrophotometric assay
T1 sequence (Q9KID9 whole entry): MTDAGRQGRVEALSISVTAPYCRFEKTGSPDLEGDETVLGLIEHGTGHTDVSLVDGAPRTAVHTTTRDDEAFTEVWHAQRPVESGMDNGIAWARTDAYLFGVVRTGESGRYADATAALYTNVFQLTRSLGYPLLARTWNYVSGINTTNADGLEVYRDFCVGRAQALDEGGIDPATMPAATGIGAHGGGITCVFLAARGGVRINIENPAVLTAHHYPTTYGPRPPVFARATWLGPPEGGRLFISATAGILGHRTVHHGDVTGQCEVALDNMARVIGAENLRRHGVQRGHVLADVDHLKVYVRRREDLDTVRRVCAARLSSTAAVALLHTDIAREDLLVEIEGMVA

[2] = Inhibition of Escherichia coli EntB expressed in Escherichia coli BL21(DE3) using chorismate as substrate after 5 mins by LDH-coupled spectrophotometric assay
Chorismatase [3] = target: T1, Chorismatase; assay: Competitive inhibition of Streptomyces hygroscopicus subsp. ascomyceticus chorismatase FkbO expressed in Escherichia coli BL21(DE3) using chorismate as substrate
[4] = Inhibition of Streptomyces hygroscopicus hyg5 expressed in Escherichia coli BL21(DE3) using chorismate as substrate after 5 mins by LDH-coupled spectrophotometric assay
[5] = Competitive inhibition of Escherichia coli EntB expressed in Escherichia coli BL21(DE3) using chorismate as substrate

IC50 (Chorismatase [1]) [mM]	IC50 [2] [mM]	Ki (Chorismatase [3]) [mM]	IC50 [4] [mM]	SMILES	Ki [5] [mM]
45	0.209	19.6	68.5	O=C(O)/C=C/c1cccc(C(=O)O)c1	0.122
1.09	0.472	1.02	1.25	O=C(O)CCc1cccc(C(=O)O)c1	0.282
